Reference: the kinase profiling compilation of Christmann-Franck et al. (2016)

Assays:
TXK (human) = TXK (human) (UniProt P42681)
STK17B (human) = STK17B (human) (UniProt O94768); assay: KINOMEscan competition binding; details: compound 10.0 µM
EPHA3 (human) = EPHA3 (human) (UniProt P29320); assay: KINOMEscan competition binding; details: compound 10.0 µM
STK11 (human) = STK11 (human) (UniProt Q15831); assay: KINOMEscan competition binding; details: compound 10.0 µM
GAK (human) = GAK (human) (UniProt O14976); assay: KINOMEscan competition binding; details: compound 10.0 µM
STK4 (human) = STK4 (human) (UniProt Q13043); assay: KINOMEscan competition binding; details: compound 10.0 µM
CLK2 (human) = CLK2 (human) (UniProt P49760); assay: KINOMEscan competition binding; details: compound 10.0 µM
TNK2 (human) = TNK2 (human) (UniProt Q07912); assay: KINOMEscan competition binding; details: compound 10.0 µM
MERTK (human) = MERTK (human) (UniProt Q12866); assay: KINOMEscan competition binding; details: compound 10.0 µM
PLK4 (human) = PLK4 (human) (UniProt O00444); assay: KINOMEscan competition binding; details: compound 10.0 µM
ACVR2A (human) = ACVR2A (human) (UniProt P27037); assay: KINOMEscan competition binding; details: compound 10.0 µM
MST4 (human) = MST4 (human) (UniProt Q9P289); assay: KINOMEscan competition binding; details: compound 10.0 µM
ACVR2B (human) = ACVR2B (human) (UniProt Q13705); assay: KINOMEscan competition binding; details: compound 10.0 µM
PRKAA2 (human) = PRKAA2 (human) (UniProt P54646); assay: KINOMEscan competition binding; details: compound 10.0 µM
BRAF (human) = BRAF (human) (UniProt P15056); assay: KINOMEscan competition binding; details: compound 10.0 µM
FGR (human) = FGR (human) (UniProt P09769); assay: KINOMEscan competition binding; details: compound 10.0 µM
CSNK2A2 (human) = CSNK2A2 (human) (UniProt P19784); assay: KINOMEscan competition binding; details: compound 10.0 µM
STK17A (human) = STK17A (human) (UniProt Q9UEE5); assay: KINOMEscan competition binding; details: compound 10.0 µM
EPHA8 (human) = EPHA8 (human) (UniProt P29322); assay: KINOMEscan competition binding; details: compound 10.0 µM
MAP4K3 (human) = MAP4K3 (human) (UniProt Q8IVH8); assay: KINOMEscan competition binding; details: compound 10.0 µM
CDK5 (human) = CDK5 (human) (UniProt Q00535); assay: KINOMEscan competition binding; details: compound 10.0 µM
CSNK1A1L (human) = CSNK1A1L (human) (UniProt Q8N752); assay: KINOMEscan competition binding; details: compound 10.0 µM
MARK2 (human) = MARK2 (human) (UniProt Q7KZI7); assay: KINOMEscan competition binding; details: compound 10.0 µM
BTK (human) = BTK (human) (UniProt Q06187); assay: KINOMEscan competition binding; details: compound 10.0 µM
STK33 (human) = STK33 (human) (UniProt Q9BYT3); assay: KINOMEscan competition binding; details: compound 10.0 µM
BRSK2 (human) = BRSK2 (human) (UniProt Q8IWQ3); assay: KINOMEscan competition binding; details: compound 10.0 µM
ITK (human) = ITK (human) (UniProt Q08881); assay: KINOMEscan competition binding; details: compound 10.0 µM
STK38L (human) = STK38L (human) (UniProt Q9Y2H1); assay: KINOMEscan competition binding; details: compound 10.0 µM
AURKA (human) = AURKA (human) (UniProt O14965); assay: KINOMEscan competition binding; details: compound 10.0 µM
Sequence of AURKA (human) (O14965 whole entry, looked up): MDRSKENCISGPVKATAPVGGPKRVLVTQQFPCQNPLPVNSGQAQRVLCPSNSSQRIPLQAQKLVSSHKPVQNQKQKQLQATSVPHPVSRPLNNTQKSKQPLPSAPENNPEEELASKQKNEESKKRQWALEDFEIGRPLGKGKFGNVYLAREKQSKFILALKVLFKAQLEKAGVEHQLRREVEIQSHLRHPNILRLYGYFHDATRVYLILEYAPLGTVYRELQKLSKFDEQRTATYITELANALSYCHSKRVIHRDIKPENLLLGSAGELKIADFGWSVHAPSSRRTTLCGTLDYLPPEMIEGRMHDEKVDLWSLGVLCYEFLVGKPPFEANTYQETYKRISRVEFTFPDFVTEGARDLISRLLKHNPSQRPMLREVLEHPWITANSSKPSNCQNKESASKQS

Sequence of CSNK1A1L (human) (Q8N752 whole entry, looked up): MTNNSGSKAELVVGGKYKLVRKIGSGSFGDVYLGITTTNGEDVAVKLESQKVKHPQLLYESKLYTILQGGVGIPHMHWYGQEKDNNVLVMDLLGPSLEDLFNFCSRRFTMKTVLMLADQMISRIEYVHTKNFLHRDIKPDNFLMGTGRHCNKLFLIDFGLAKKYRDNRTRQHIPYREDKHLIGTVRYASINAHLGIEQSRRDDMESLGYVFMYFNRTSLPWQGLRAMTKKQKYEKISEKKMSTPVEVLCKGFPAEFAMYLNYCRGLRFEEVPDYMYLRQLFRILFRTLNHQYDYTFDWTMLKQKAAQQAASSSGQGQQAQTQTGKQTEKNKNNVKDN
Sequence of EPHA3 (human) (P29320 whole entry, looked up): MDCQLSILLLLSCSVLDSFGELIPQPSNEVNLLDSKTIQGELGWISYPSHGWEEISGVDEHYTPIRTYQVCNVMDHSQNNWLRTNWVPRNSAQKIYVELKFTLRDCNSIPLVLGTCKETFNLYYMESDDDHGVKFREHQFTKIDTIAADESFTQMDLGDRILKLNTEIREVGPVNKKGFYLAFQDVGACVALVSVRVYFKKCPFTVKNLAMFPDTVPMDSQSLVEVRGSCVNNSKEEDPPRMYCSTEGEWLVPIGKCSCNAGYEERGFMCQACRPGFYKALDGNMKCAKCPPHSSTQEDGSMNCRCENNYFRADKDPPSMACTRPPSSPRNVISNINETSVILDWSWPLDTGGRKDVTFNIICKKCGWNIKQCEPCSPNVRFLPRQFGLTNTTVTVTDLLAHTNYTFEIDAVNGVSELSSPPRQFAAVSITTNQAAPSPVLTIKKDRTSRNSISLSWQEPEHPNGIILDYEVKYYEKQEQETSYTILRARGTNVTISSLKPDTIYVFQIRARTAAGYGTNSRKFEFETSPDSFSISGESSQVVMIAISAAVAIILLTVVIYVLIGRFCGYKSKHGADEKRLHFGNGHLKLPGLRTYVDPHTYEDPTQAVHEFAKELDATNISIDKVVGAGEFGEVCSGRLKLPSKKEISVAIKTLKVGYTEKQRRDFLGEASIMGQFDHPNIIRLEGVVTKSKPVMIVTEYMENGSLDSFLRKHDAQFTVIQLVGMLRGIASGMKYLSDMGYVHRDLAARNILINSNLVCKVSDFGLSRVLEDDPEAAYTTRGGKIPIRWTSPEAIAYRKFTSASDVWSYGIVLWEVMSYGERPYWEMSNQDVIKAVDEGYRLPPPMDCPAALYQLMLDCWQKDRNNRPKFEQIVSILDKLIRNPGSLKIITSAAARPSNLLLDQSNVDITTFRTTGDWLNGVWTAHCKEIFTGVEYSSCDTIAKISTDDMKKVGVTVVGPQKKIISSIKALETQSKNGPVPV
Sequence of STK17A (human) (Q9UEE5 whole entry, looked up): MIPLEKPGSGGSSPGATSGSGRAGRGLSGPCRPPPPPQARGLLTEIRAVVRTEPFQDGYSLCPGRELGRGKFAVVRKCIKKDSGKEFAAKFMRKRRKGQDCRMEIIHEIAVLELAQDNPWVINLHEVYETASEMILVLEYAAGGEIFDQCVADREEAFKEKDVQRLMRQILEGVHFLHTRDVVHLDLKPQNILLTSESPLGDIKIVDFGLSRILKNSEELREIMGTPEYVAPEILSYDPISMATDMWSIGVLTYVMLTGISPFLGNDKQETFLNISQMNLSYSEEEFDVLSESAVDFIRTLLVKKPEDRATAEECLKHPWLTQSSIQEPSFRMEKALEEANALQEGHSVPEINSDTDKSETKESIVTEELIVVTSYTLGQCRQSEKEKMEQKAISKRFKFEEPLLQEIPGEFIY
Sequence of CSNK2A2 (human) (P19784 whole entry, looked up): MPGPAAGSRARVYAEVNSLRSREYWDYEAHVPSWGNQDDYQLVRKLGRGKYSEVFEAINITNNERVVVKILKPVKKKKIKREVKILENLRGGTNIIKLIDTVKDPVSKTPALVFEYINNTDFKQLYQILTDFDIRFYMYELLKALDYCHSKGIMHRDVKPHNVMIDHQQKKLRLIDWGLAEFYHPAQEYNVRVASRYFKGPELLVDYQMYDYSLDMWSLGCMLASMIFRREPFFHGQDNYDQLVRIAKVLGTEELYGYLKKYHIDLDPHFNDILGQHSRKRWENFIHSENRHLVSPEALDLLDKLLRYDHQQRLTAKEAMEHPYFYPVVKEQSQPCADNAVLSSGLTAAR
Sequence of STK33 (human) (Q9BYT3 whole entry, looked up): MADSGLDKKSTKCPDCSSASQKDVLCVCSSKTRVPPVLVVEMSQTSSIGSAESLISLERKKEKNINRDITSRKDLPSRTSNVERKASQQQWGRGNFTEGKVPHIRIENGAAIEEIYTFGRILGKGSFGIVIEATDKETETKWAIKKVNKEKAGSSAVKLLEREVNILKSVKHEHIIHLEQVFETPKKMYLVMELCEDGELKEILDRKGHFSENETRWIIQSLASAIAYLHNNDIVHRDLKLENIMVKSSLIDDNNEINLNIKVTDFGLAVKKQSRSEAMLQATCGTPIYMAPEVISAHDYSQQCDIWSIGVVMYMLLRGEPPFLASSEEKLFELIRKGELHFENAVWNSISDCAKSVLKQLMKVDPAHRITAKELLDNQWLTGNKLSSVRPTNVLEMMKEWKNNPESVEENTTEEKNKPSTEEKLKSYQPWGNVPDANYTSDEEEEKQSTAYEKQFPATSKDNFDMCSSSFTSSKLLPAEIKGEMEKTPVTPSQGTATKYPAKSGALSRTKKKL
Sequence of STK17B (human) (O94768 whole entry, looked up): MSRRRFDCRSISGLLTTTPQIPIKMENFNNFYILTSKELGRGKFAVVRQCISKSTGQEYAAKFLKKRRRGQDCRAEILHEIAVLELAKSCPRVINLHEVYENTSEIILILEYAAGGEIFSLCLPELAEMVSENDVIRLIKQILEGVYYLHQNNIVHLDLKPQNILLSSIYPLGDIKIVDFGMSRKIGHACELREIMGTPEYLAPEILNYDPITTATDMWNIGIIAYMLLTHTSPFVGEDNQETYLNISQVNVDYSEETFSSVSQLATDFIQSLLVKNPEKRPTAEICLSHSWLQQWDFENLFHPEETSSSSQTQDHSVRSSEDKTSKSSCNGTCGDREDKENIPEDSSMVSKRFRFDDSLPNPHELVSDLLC
Sequence of PRKAA2 (human) (P54646 whole entry, looked up): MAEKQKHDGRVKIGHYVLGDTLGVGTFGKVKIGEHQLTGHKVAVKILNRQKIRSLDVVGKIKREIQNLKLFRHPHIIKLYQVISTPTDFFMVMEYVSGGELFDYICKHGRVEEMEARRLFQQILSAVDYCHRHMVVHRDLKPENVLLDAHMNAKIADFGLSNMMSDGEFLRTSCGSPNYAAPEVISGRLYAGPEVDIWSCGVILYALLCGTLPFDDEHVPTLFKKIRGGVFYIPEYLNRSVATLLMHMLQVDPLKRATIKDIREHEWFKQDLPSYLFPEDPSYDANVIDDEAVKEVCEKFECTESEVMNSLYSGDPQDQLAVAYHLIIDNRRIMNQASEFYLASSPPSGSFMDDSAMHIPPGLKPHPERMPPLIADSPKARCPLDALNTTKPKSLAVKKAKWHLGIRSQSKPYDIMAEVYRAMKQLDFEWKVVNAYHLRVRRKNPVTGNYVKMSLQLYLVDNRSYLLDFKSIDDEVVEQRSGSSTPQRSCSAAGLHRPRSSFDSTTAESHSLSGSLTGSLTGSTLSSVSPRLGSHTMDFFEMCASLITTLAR
Sequence of CDK5 (human) (Q00535 whole entry, looked up): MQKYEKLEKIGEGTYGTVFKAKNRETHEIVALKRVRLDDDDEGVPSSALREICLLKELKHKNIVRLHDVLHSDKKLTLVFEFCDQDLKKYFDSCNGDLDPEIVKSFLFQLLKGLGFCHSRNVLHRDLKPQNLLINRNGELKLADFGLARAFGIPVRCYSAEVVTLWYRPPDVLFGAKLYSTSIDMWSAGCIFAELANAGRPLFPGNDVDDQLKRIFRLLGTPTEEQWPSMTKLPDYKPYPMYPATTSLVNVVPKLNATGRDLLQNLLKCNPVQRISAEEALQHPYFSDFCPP
Sequence of CLK2 (human) (P49760 whole entry, looked up): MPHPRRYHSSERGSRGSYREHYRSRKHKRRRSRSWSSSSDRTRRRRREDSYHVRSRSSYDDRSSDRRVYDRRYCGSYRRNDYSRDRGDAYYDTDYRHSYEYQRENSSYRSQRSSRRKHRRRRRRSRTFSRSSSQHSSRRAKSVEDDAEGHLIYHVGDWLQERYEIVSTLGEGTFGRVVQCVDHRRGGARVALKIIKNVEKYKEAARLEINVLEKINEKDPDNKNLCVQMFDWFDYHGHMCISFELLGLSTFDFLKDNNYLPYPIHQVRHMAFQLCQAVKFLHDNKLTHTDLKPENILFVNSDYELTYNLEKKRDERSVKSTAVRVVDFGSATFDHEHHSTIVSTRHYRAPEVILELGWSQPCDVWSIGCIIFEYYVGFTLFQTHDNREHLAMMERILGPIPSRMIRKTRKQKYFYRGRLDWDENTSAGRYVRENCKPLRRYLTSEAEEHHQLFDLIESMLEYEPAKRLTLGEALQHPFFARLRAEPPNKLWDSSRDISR

Cc1ccc(C(=O)Nc2cccc(C(C)(C)C)c2)cc1-c1ccc(C(=O)NCC2CC2)cc1
Kd (TXK (human)): 80 nM
kinase still bound, per cent of control (STK17B (human)): no effect (inactive)
kinase still bound, per cent of control (EPHA3 (human)): 0%
kinase still bound, per cent of control (STK11 (human)): no effect (inactive)
kinase still bound, per cent of control (GAK (human)): no effect (inactive)
kinase still bound, per cent of control (STK4 (human)): no effect (inactive)
kinase still bound, per cent of control (CLK2 (human)): no effect (inactive)
kinase still bound, per cent of control (TNK2 (human)): no effect (inactive)
kinase still bound, per cent of control (MERTK (human)): no effect (inactive)
kinase still bound, per cent of control (PLK4 (human)): no effect (inactive)
kinase still bound, per cent of control (ACVR2A (human)): no effect (inactive)
kinase still bound, per cent of control (MST4 (human)): no effect (inactive)
kinase still bound, per cent of control (ACVR2B (human)): no effect (inactive)
kinase still bound, per cent of control (PRKAA2 (human)): no effect (inactive)
kinase still bound, per cent of control (BRAF (human)): no effect (inactive)
kinase still bound, per cent of control (FGR (human)): no effect (inactive)
kinase still bound, per cent of control (CSNK2A2 (human)): no effect (inactive)
kinase still bound, per cent of control (STK17A (human)): no effect (inactive)
kinase still bound, per cent of control (EPHA8 (human)): 0%
kinase still bound, per cent of control (MAP4K3 (human)): no effect (inactive)
kinase still bound, per cent of control (CDK5 (human)): no effect (inactive)
kinase still bound, per cent of control (CSNK1A1L (human)): no effect (inactive)
kinase still bound, per cent of control (MARK2 (human)): no effect (inactive)
kinase still bound, per cent of control (BTK (human)): no effect (inactive)
kinase still bound, per cent of control (STK33 (human)): no effect (inactive)
kinase still bound, per cent of control (BRSK2 (human)): no effect (inactive)
kinase still bound, per cent of control (ITK (human)): no effect (inactive)
kinase still bound, per cent of control (STK38L (human)): no effect (inactive)
kinase still bound, per cent of control (AURKA (human)): no effect (inactive)
